According to patent publication US10925858B2, “S-nitrosoglutathione (GSNO) and GSNO reductase inhibitors for use in therapy” (MUSC FOUNDATION FOR RESEARCH DEVELOPMENT, priority 2017, dated 2021):

Key:
[1] = test system: IFN-γ, IL-4, IL-17, IL-10; assay: ELISA of CD4+ T cell subset specific cytokines from spleen derived cells of EAE mice after MOG restimulation; assay type: in vivo, C57BL/6 mice; conditions: N6022, MOG restimulation
Method: Female C57BL/6 mice of 8-12 weeks of age, purchased from Jackson Laboratory, were provided with food and water ad libitum and were kept in pathogen free animal care facility of Medical University of South Carolina (MUSC) throughout the study. All procedures were conducted in accordance with accepted standards of humane care as approved by the Institutional Animal Care and Use Committee (Approved number: AR #1644). EAE was induced as described previously (Nath et al., 2009). Briefly, mice were immunized subcutaneously in the flank regions with MOG35-55 peptide (MOG; 200 μg; Peptide International) emulsified (1:1) in 100 ul complete Freund's adjuvant (CFA) on day 0 and day 7. Additionally, 300 ng of Pertussis toxin (Sigma-Aldrich, St. Louis, Mo.) was given on day 0 and day 2 by i.p. injection. Pertussis toxin used as per the standardized protocol reported by us and other investigators for the induction of EAE (Nath et al., 2009). Similarly, healthy control group received subcutaneous injection of PBS and CFA emulsion on day 0 and day 7. Clinical signs of EAE were scored by examiners blinded to experimental treatments using the following scale: 0=no clinical signs of disease; 1=piloerection and sluggish; 2=limp tail (ataxia); 2.5=ataxia with partial hind limb paralysis; 3=full paralysis of hind limb; 3.5=full paralysis of hind limb with paralysis of one fore limb; 4=full paralysis of two limbs; 4.5=moribund stage; 5=death. […] The drug treatments were continued till the termination of the study (day 41 post immunization). EAE animals without drug treatment received PBS. Likewise, healthy controls received vehicle.
Fluorescence flow cytometry analysis for each subset of CD4+ T cells (TH1, TH2, TH17, CD4+CD25+ FOXP3+ Treg, and CD4+CD25+ FOXP3− Treg) were performed based on our previous report with modification (Nath et al., 2004). Briefly, control mice, EAE mice. EAE mice treated with GSNO. […] Following the preparation of single cell suspension, red blood cells were lysed with Pharma lyse buffer (BD Pharmingen™) and the remaining spleen cells were washed with RPMI 1640. The isolated CD4+ T cells were then resuspended with complete RPMI-media in 12-well plates (5×10^6 cells' 2 ml per well) containing MOG peptide (25 μg/ml) for 48 hrs. […] The cell pellets were washed with cell staining solution (ebioscience, Waltham, Mass. USA) and stained with fluorescence labeled antibody specific to IFN-γ for TH1. […] The cells were counted and analyzed using Beackman Coulter instrument (Beckman Coulter, Inc., Brea, Calif., USA).
ELISA assay was performed for analysis of CD4+ T cell subset specific cytokines released from cultured cells or spinal cord tissues. […] The equal amounts of proteins were analyzed for ELISA for IFN-γ. […]

hBMVECs = assay: Assay for F-actin stress fiber development in thrombin treated hBMVECs; assay type: cell-based, human; conditions: thrombin 0.1 unit/ml 30 min; GSNO 100 μM or SIN-1 100 μM pretreated 2 hr
Method: Cell culture: Primary human brain microvascular endothelial cells (hBMVECs) were purchased from Angio-Proteomie (Cat #: cAP-0002, Atlanta, Ga.). The cells were cultured in cell culture flasks or plates precoated with Quick Coating Solution (Angio-Proteomie; Cat #: cAP-01) and maintained in Endothelial Growth Medium (Angio-Proteomie; Cat #: cAP-02) at 37° C. under 5% CO2/95% air. When the cells were almost confluent, the medium was replaced with endothelial basal medium (Angio-Proteomie; Cat #: cAP-03) containing 0.5% fetal bovine serum (FBS; Life Technologies, Grand Island, N.Y.) about 8-12 hours before the experiment. No institutional approval was required for this study. The study was not pre-registered.
Assay for F-actin stress fiber development and endothelial cell contraction: hBMVECs were cultured on fibronectin-coated chamber slides (BD Bioscience). Following drug treatments, the cells were fixed with 4% (wt/vol) paraformaldehyde, permeabilized by the addition of 0.25% Triton X-100, and blocked by 2% bovine serum albumin (BSA) in phosphate buffered saline (PBS). […] The density of fluorescence was analyzed by ImageJ (NIH, Bethesda, Md.).

| Compound | IL-10 production from spleen derived cells [1] | production of IFN-γ from spleen derived cells [1] | production of IL-17 from spleen derived cells [1] | IL-4 production from spleen derived cells ([1]; to the control levels) | thrombin-induced development of F-actin stress fiber formation (hBMVECs) |
| --- | --- | --- | --- | --- | --- |
| Cc1cc(C(N)=O)ccc1-n1c(CCC(=O)O)ccc1-c1ccc(-n2ccnc2)cc1 [N6022, reference compound] | enhanced | decreased | decreased | fully restored | – |
| N[C@@H](CCC(=O)N[C@@H](CSN=O)C(=O)NCC(=O)O)C(=O)O [GSNO, S-nitrosoglutathione] | – | – | – | – | inhibited |
